Measured values from the CheMixHub viscosity set.

Experiment: xn = mol fraction of the nth substance listed

COCCO + CO
viscosity [mPa·s]
Conditions | 298.15 K | 308.15 K | 318.15 K
101 kPa, x1 = 0.04469 | 0.6045 | 0.5088 | 0.4575
101 kPa, x1 = 0.09523 | 0.6714 | 0.536 | 0.469
101 kPa, x1 = 0.1529 | 0.7467 | – | 0.4955
101 kPa, x1 = 0.2192 | 0.8508 | 0.6249 | 0.5383
101 kPa, x1 = 0.2963 | 0.9698 | 0.6991 | 0.6017
101 kPa, x1 = 0.3871 | 1.085 | 0.7594 | 0.6484
101 kPa, x1 = 0.4956 | 1.19 | 0.8407 | 0.7649
101 kPa, x1 = 0.6274 | 1.299 | 0.9321 | 0.8436
101 kPa, x1 = 0.7912 | 1.419 | 1.058 | 0.9667
101.33 kPa, x1 = 0.1175 | – | 0.569 | –
101.33 kPa, x1 = 0.2098 | – | 0.64 | –
101.33 kPa, x1 = 0.3143 | – | 0.717 | –
101.33 kPa, x1 = 0.4866 | – | 0.844 | –
101.33 kPa, x1 = 0.6126 | – | 0.93 | –
101.33 kPa, x1 = 0.762 | – | 1.036 | –
101.33 kPa, x1 = 0.8201 | – | 1.074 | –
101.33 kPa, x1 = 0.9101 | – | 1.13 | –

N#C[S-].[Na+] + CO
viscosity [mPa·s], 101.3 kPa
Conditions | 293.15 K | 298.15 K | 303.15 K | 308.15 K | 313.15 K | 318.15 K | 323.15 K
x1 = 0.003649 | 0.656 | 0.608 | 0.563 | 0.526 | 0.491 | 0.46 | 0.432
x1 = 0.01456 | 0.819 | 0.753 | 0.695 | 0.643 | 0.597 | 0.556 | 0.518
x1 = 0.03159 | 0.947 | 0.871 | 0.803 | 0.743 | 0.689 | 0.646 | 0.602
x1 = 0.0463 | 1.117 | 1.027 | 0.947 | 0.873 | 0.811 | 0.753 | 0.703
x1 = 0.05341 | 1.197 | 1.101 | 1.011 | 0.932 | 0.861 | 0.798 | 0.742
x1 = 0.07204 | 1.409 | 1.286 | 1.176 | 1.086 | 1.011 | 0.923 | 0.859
x1 = 0.08868 | 1.716 | 1.552 | 1.416 | 1.293 | 1.186 | 1.092 | 1.009
x1 = 0.09954 | 1.915 | 1.711 | 1.514 | 1.38 | 1.261 | 1.16 | 1.068
x1 = 0.1138 | 2.253 | 1.996 | 1.793 | 1.624 | 1.477 | 1.353 | 1.239
x1 = 0.1229 | 2.36 | 2.109 | 1.904 | 1.732 | 1.565 | 1.426 | 1.304
x1 = 0.1415 | 2.922 | 2.58 | 2.295 | 2.055 | 1.854 | 1.683 | 1.535

COCCO + COC(=O)OC
298.15 K, 101.33 kPa
Conditions | viscosity [mPa·s]
x1 = 0.0114 | 0.593
x1 = 0.0258 | 0.594
x1 = 0.0442 | 0.598
x1 = 0.0637 | 0.6
x1 = 0.0769 | 0.603
x1 = 0.0975 | 0.608
x1 = 0.1462 | 0.624
x1 = 0.2295 | 0.658
x1 = 0.2503 | 0.669
x1 = 0.2778 | 0.681
x1 = 0.3223 | 0.704
x1 = 0.34 | 0.713
x1 = 0.4034 | 0.758
x1 = 0.4719 | 0.81
x1 = 0.5173 | 0.848
x1 = 0.5482 | 0.874
x1 = 0.5889 | 0.91
x1 = 0.6404 | 0.96
x1 = 0.7382 | 1.075
x1 = 0.814 | 1.12
x1 = 0.8597 | 1.252
x1 = 0.89 | 1.305
x1 = 0.9189 | 1.355
x1 = 0.9738 | 1.471
x2 = 0.0109 | 1.516
